This is an account of results in article PMC3078958 (Archives of biochemistry and biophysics, 2011).

In general, Ki refers to the dissociation constant of the complex between target and ligand, obtained from inhibition or displacement. A lower Ki goes with higher affinity.

The experiment deals with T1, CsOxOx (Ceriporiopsis subvermispora bicupin oxalate oxidase, isoform-G) (Gelatoporia subvermispora, UniProt Q5ZH56).
T1 sequence (Q5ZH56 21-461): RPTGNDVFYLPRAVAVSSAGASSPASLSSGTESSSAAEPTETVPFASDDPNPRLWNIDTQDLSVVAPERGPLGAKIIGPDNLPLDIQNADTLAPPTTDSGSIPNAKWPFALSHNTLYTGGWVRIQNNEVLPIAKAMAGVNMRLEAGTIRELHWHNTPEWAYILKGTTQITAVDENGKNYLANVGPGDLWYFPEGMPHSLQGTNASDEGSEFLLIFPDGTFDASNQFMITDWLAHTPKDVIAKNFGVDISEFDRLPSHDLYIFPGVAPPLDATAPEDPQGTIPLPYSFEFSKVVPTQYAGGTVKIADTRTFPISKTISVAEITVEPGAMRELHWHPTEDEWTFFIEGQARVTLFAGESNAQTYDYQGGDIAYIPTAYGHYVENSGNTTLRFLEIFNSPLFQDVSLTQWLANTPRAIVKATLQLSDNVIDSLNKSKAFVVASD
Description: continuous coupled HRP/ABTS assay of H2O2 production, […] nm. It counts as biochemical.
Regarding `O=C(O)C[C@H](O)C(=O)O` [malate], the Ki was determined as 52 ± 6 mM.

Molecule `O=C(O)CC(=O)O` [malonate] gave a Ki of 3 ± 0.3 mM.

On to `CC(=O)C(=O)O` [pyruvate], for which the affinity, expressed as Ki, was 17 ± 3 mM.

Turning to `O=CC(=O)O` [glyoxylate], the affinity, expressed as Ki, was 15 ± 3 mM.

In the case of `CC(=O)O` [acetate], the Ki was found to be 3.9 ± 0.6 mM.

The molecule `O=C(O)CO` [glycolate] had a Ki of 28 ± 5 mM.
